In patent US20250092065A1, “2-(INDAZOL-5-YL)-6-(PIPERIDIN-4-YL)-1,7-NAPHTHYRIDINE DERIVATIVES AND RELATED COMPOUNDS AS MODULATORS FOR SPLICING NUCLEIC ACIDS AND FOR THE TREATMENT OF PROLIFERATIVE DISEASES” (REMIX THERAPEUTICS INC., priority 2022, published 2025):
Where a name gives a salt, the structure may show the parent alone. Read-outs that look alike come from different tables or passages of the source.

Tested on: HTT mRNA
Assay: RT-qPCR splicing assay, HTT mRNA canonical (CJ) and alternative (AJ) junction
Type: cell-based, human
Conditions: Homo sapiens; for AC50: HTT alternative junction mRNA, read-out: HTT AJ (increase in AJ mRNA, AC50)
In short: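 A673 or K562 cells treated 24 h at 37 °C with 11-point 3-fold dilutions (top final 10 uM, DMSO ≤0.25%). Lysates analysed by one-step RT-qPCR for canonical (CJ) and alternative-exon (AJ) junctions, normalized to GAPDH, GUSB or PPIA. ΔΔCt vs DMSO, RQ = 2^(−ΔΔCt), expressed as percentage response.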

[1] = HTT canonical junction mRNA, RT-qPCR, read-out: HTT CJ (decrease in CJ mRNA levels, IC50)
[2] = canonical junction qPCR panel, Table 4, read-out: HTT IC50 (decrease in CJ mRNA levels)

CN[C@H]1CCN(c2cc3c(Cl)cc(-c4cc5cn(C)nc5c(C)c4O)nc3cc2C)C1 [Compound 749, 5-{4-chloro-7-methyl-6-[(3S)-3-(methylamino)pyrrolidin-1-yl]quinolin-2-yl}-2,7-dimethylindazol-6-ol]
> 10000 nM: AC50 (RT-qPCR) | IC50 [1] | IC50 [2]

Cn1cc2cc(-c3ncc4cc(N5CCC(N6CCC6)CC5)ccc4n3)c(O)c(F)c2n1 [Compound 750, 5-{6-[4-(azetidin-1-yl)piperidin-1-yl]quinazolin-2-yl}-7-fluoro-2-methylindazol-6-ol]
100 to 1000 nM: AC50 (RT-qPCR) | IC50 [1] | IC50 [2]

C[C@@H]1CN(c2ccc3nc(-c4cc5cn(C)nc5cc4O)ncc3c2)C[C@H](C)N1 [Compound 751, 5-{6-[(3R,5S)-3,5-dimethylpiperazin-1-yl]quinazolin-2-yl}-2-methylindazol-6-ol hydrochloride]
> 10000 nM: AC50 (RT-qPCR) | IC50 [1] | IC50 [2]

C[C@H]1CN(c2ccc3nc(-c4cc5cn(C)nc5cc4O)ncc3c2)C[C@H](C)N1 [Compound 752, 5-{6-[(3S,5S)-3,5-dimethylpiperazin-1-yl]quinazolin-2-yl}-2-methylindazol-6-ol]
1000 to 10000 nM: AC50 (RT-qPCR) | IC50 [1] | IC50 [2]

C[C@@H]1CN(c2ccc3nc(-c4cc5cn(C)nc5cc4O)ncc3c2)C[C@@H](C)N1 [Compound 753, 5-{6-[(3R,5R)-3,5-dimethylpiperazin-1-yl]quinazolin-2-yl}-2-methylindazol-6-ol]
1000 to 10000 nM: AC50 (RT-qPCR) | IC50 [1] | IC50 [2]

CCN(CC)C1CCN(c2ccc3nc(-c4cc5cn(C)nc5c(F)c4O)ncc3c2)CC1 [Compound 756, 5-{6-[4-(diethylamino)piperidin-1-yl]quinazolin-2-yl}-7-fluoro-2-methylindazol-6-ol]
100 to 1000 nM: AC50 (RT-qPCR) | IC50 [1] | IC50 [2]
